# Test results as given in patent EP1388586A2, “Identification of broadly reactive DR restricted epitopes” (priority 1998, dated 1999).
# Like-named read-outs stand apart in the source and are kept apart here. Square brackets hold non-standard residues; d marks the D form. Ends that are not written are not given here. Peptide text beside a SMILES is read from it.
# Columns and labels:
# [1] = target: T1, DRB1*0101 (DR1) (Homo sapiens, UniProt P01903+P01911, A100R/D57E/F55L/F60I/F76Y/I96L/L162R/M171V/P40L/Q125E/R42F/V115G/Y59C); assay: Class II peptide-binding assay, DR1;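 also: competition assay: unlabeled test peptides inhibit binding of a radiolabeled probe peptide to purified DR, with half-maximal inhibition taken as an approximate dissociation constant Kd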
# T1 construct: used as sources of human HLA class II molecules; endogenous in cells; host or cells: LG2 (EBV-transformed homozygous B cell line)
# [2] = target: T2, DRB10404 (DR4w14) (Homo sapiens, UniProt P01903+P01911, A100R/A169T/F76Y/I96L/K127E/L162R/M171V/N62H/P40V/Q125Y/R42H/S133A/S149N/S66Y/V209L/W38E); assay: Class II peptide-binding assay, DR4w14;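 also: unlabeled peptides compete with a radiolabeled probe for binding to affinity-purified HLA-DR, neutral pH, class II amount titrated to bind a small fraction of label, IC50 approximates Kd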
# T2 construct: used as sources of human HLA class II molecules; endogenous in cells; host or cells: BIN40 (EBV-transformed homozygous B cell line)
# Experimental: (§1) Class II peptide-binding assays. […] These assays were chosen as to be representative of the most common DR alleles.
# In appropriate stoichiometric conditions, the IC50 of an unlabeled test peptide to the purified DR is a reasonable approximation of the affinity of interaction (Kd). Peptides were tested in two to four completely independent experiments. […] Final detergent concentration in the incubation mixture was 0.05% Nonidet P-40. Assays were performed at pH 7.0 with the exception of DR3, which was performed at pH 4.5, and DRw53, which was performed at pH 5.0.
# (§2) All subsequent inhibition and direct binding assays were the performed using these class II concentrations.
# [3] = target: T3, DRB1*0401 (DR4w4) (Homo sapiens, UniProt P01903+P01911, A100K/A169T/F76Y/I96L/K127E/L162R/M171V/N62H/P40V/Q125Y/R42H/S133A/S149N/S66Y/V115G/V209L/W38E); assay: Class II peptide-binding assay, DR4w4;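 also: unlabeled test peptides compete with a radiolabeled probe peptide for binding to affinity-purified HLA-DR, with DR amount titrated to capture a small fraction of label, IC50 approximating Kd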
# T3 construct: used as sources of human HLA class II molecules; endogenous in cells; host or cells: PREISS (EBV-transformed homozygous B cell line)
# [4] = target: DRB1*0701 (DR7) (Homo sapiens, UniProt P01903+P01911, A100R/A102G/A103Q/D57E/D86V/E43K/F76Y/K127E/L162R/M171V/P40G/Q125H/Q99D/R33Q/R42Y/R54Q/S133A/S66F/T210M/V115G/Y107V/Y59L/Y89S); assay: Class II peptide-binding assay, DR7;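 also: unlabeled peptides compete with an iodinated probe peptide for binding to affinity-purified HLA-DR at neutral pH, DR amount titered to bind a small tracer fraction, IC50 approximating Kd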
# [5] = target: T4, DRB1*1101 (DR5w11) (Homo sapiens, UniProt P01903+P01911, A100R/A169T/A87E/I96F/K41T/L162R/M171V/P40S/Q125H/Q178H/Q39Y/Q99D/R42S/S66Y/T262R/V115G/W38E); assay: Class II peptide-binding assay, DR5w11;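 also: competition by unlabeled test peptide against iodinated probe peptide binding to affinity-purified HLA-DR, class II amount titrated beforehand, half-maximal inhibitory concentration read as approximate Kd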
# T4 construct: used as sources of human HLA class II molecules; endogenous in cells; host or cells: SWEIG (EBV-transformed homozygous B cell line)
# T4 sequence (P01903 26-254, other chains not shown): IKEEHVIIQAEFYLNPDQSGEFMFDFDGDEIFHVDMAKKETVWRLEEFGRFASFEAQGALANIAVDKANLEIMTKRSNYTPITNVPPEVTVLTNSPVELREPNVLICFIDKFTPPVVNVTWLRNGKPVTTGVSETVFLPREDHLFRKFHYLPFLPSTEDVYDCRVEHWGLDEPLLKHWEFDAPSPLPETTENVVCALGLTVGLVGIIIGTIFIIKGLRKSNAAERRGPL
# Experimental: as §1
# Radiolabeled peptides were iodinated using the chloramine-T method. […] In appropriate stoichiometric conditions, the IC50 of an unlabeled test peptide to the purified DR is a reasonable approximation of the affinity of interaction (Kd). Peptides were tested in two to four completely independent experiments. […] Final detergent concentration in the incubation mixture was 0.05% Nonidet P-40. Assays were performed at pH 7.0 with the exception of DR3, which was performed at pH 4.5, and DRw53, which was performed at pH 5.0.
# as §2
# [6] = target: T5, DRB5*0101 (DR2w2a) (Homo sapiens, UniProt P01903+Q30154); assay: Class II peptide-binding assay, DR2w2a (DR2w2B2);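 also: competitive binding assay: unlabeled peptide inhibiting binding of a radiolabeled probe peptide to purified DR molecules at pH 7.0, IC50 approximating Kd, lower means stronger binding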
# T5 construct: used as sources of human HLA class II molecules; endogenous in cells; host or cells: GM3107 (EBV-transformed homozygous B cell line)
# [7] = read-out: DR1 nM (In IC50 Format), purified HLA DR1
# [8] = read-out: DR4w14 nM (In IC50 Format), purified HLA DR4w14
# [9] = read-out: DR4w4 nM (In IC50 Format), purified HLA DR4w4
# [10] = read-out: DR7 nM (In IC50 Format), purified HLA DR7
# [11] = read-out: DR5w11 nM (In IC50 Format), purified HLA DR5w11
# [12] = read-out: DR2w2B2 nM (In IC50 Format), purified HLA DR2w2β2
# [13] = read-out: DR2w2B2 nM, Table VIII, In IC50 Format
# [14] = read-out: DR1 nM, Table VIII, In IC50 Format
# [15] = read-out: DR4w4 nM, Table VIII, In IC50 Format
# [16] = read-out: DR5w11 nM, Table VIII, In IC50 Format
Compound,"IC50 [1, 7] [nM]","IC50 [2, 8] [nM]","IC50 [3, 9] [nM]","IC50 [4, 10] [nM]","IC50 [5, 11] [nM]","IC50 [6, 12] [nM]",other results
KSNTATSATQRLANSLVH [Peptide 735.01],313,352,441,12500,1330,,
YARFQSETTEKAKT-NH2 [Peptide 717.07],,806,64.3,,,5000,
CC[C@H](C)[C@H](NC(=O)[C@@H](NC(=O)[C@H](CC(C)C)NC(=O)[C@@H](NC(=O)[C@@H]1CCCN1C(=O)[C@H](CCCNC(=N)N)NC(=O)[C@@H](N)CCCNC(=N)N)[C@@H](C)CC)[C@@H](C)O)C(=O)N[C@H](C(=O)N[C@H](C(=O)N[C@@H](CC(C)C)C(=O)N[C@@H](CCC(=O)O)C(=O)N[C@@H](CC(=O)O)C(=O)N[C@@H](CO)C(=O)N[C@@H](CO)C(=O)NCC(=O)O)[C@@H](C)O)[C@@H](C)CC [Peptide 39.0310],,,,,,,"IC50 ([4]; read-out: In IC50 Format DR7 nM, Table VIII, page 2): 10900 nM"
YARFQSQTTLEAKT-NH2 [Peptide 717.22],7.9,,11.8,2780,29.4,870,
YARFQSQTPLKAKT-NH2 [Peptide 717.37],2.5,67.5,9,,8,64.5,
ASQKRPSQRSKYLATAST [Peptide 765.011],313,,321,961,4440,2500,
YARFQFQTTLKAKT-NH2 [Peptide 717.46],4.5,2.6,,4170,3.7,40,
C[C@H](NC(=O)[C@H](C)NC(=O)[C@H](C)NC(=O)[C@H](C)NC(=O)[C@H](Cc1ccc(O)cc1)NC(=O)[C@H](C)NC(=O)[C@@H](C)N)C(=O)N[C@@H](C)C(=O)N[C@@H](C)C(=O)N[C@@H](CCCCN)C(=O)N[C@@H](C)C(=O)N[C@@H](C)C(=O)N[C@H](C)C(N)=O [Peptide 762.01] (H-[dA]AYAAAAAAKAA[dA]-NH2),1.7,,7.1,1670,46.8,27.4,
CC(C)C[C@H](NC(=O)[C@@H](NC(=O)[C@@H](NC(=O)[C@H](CCC(N)=O)NC(=O)[C@H](CO)NC(=O)[C@H](CCC(N)=O)NC(=O)[C@H](Cc1ccccc1)NC(=O)[C@H](CCCNC(=N)N)NC(=O)[C@H](C)NC(=O)[C@H](N)Cc1ccc(O)cc1)[C@@H](C)O)[C@@H](C)O)C(=O)N[C@@H](CCCCN)C(=O)N[C@@H](C)C(=O)N[C@@H](CCCCN)C(=O)N[C@@H](C(N)=O)[C@H](C)O [Peptide 858.06] (H-[dY]ARFQSQTTLKAK[dT]-NH2),,,,,,,"IC50 [6, 13]: 64 nM; IC50 [1, 14]: 4.5 nM; IC50 [3, 15]: 5 nM; IC50 [5, 16]: 18.2 nM"
CC(C)C[C@H](NC(=O)[C@@H](NC(=O)[C@@H](NC(=O)[C@H](CCC(N)=O)NC(=O)[C@H](CCCNC(=N)N)NC(=O)[C@H](CCC(N)=O)NC(=O)[C@@H](N)Cc1ccccc1)[C@@H](C)O)[C@@H](C)O)C(=O)N[C@@H](CCCCN)C(=O)N[C@@H](C)C(=O)N[C@@H](C)C(=O)N[C@H](C)C(N)=O [Peptide 781.06] (H-FQRQTTLKAA[dA]-NH2),19.2,13.9,2.4,,,,
LMAMGITDVFSSSANLSGI [Peptide 705.08],417,,14.1,403,2500,,
QPDVRPQPPSPREGP [Peptide 39.0280],,,,,,,"IC50 ([1]; Table VIII, page 2, read-out: In IC50 Format DR1): 7140 nM"
CC[C@H](C)[C@H](NC(=O)[C@H](CCSC)NC(=O)[C@H](Cc1c[nH]c2ccccc12)NC(=O)[C@H](CS)NC(=O)[C@H](CCCCN)NC(=O)[C@@H](NC(=O)[C@H](CCSC)NC(=O)[C@@H](NC(=O)[C@H](CCSC)NC(=O)[C@H](Cc1ccc(O)cc1)NC(=O)[C@@H](NC(=O)[C@@H](N)CC(=O)O)C(C)C)[C@@H](C)CC)C(C)C)C(=O)N[C@@H](CC(=O)O)C(=O)N[C@@H](CO)C(=O)N[C@@H](CCC(=O)O)C(=O)O [Peptide 39.0277],,,,,,,"IC50 ([3]; Table VIII, page 2, read-out: In IC50 Format DR4w4 nM): 790 nM; IC50 ([5]; Table VIII, page 2, read-out: In IC50 Format DR5w11 nM): 909 nM"
INSWVESQTNGIIR [Peptide 608.02],,,,,,,"IC50 ([6]; read-out: In IC50 Format DR2w2β2, Table VIII): > 10000 nM; IC50 ([1]; read-out: In IC50 Format DR1, Table VIII): 556 nM; IC50 ([2]; read-out: In IC50 Format DR4w14, Table VIII): 16700 nM; IC50 ([3]; read-out: In IC50 Format DR4w4, Table VIII): 375 nM; IC50 ([4]; read-out: In IC50 Format DR7, Table VIII): 14.7 nM"
YARYQSQTTLKAKT-NH2 [Peptide 717.42],7.8,66.7,3.1,,14.3,364,
CC(C)C[C@H](NC(=O)[C@@H](NC(=O)[C@@H](NC(=O)[C@H](CCC(N)=O)NC(=O)[C@H](CO)NC(=O)[C@H](CCC(N)=O)NC(=O)[C@H](Cc1ccccc1)NC(=O)[C@H](CCCCN)NC(=O)[C@H](C)NC(=O)[C@H](N)Cc1ccc(O)cc1)[C@@H](C)O)[C@@H](C)O)C(=O)N[C@@H](CCCCN)C(=O)N[C@@H](C)C(=O)N[C@@H](CCCCN)C(=O)N[C@@H](C(N)=O)[C@H](C)O [Peptide 858.02] (H-[dY]AKFQSQTTLKAK[dT]-NH2),,,,,,,"IC50 [6, 13]: 32.4 nM; IC50 [1, 14]: 9 nM; IC50 ([2]; read-out: DR4w14 nM, Table VIII, In IC50 Format): 17.9 nM; IC50 [3, 15]: 6.4 nM; IC50 [5, 16]: 16.3 nM"
YARFQRQTTLKIAT [Peptide 716.01],2.9,111,16.7,42.7,,95.2,
CC(C)C[C@H](NC(=O)[C@@H](NC(=O)[C@@H](NC(=O)[C@H](CCC(N)=O)NC(=O)[C@H](CCCNC(=N)N)NC(=O)[C@H](CCC(N)=O)NC(=O)[C@H](Cc1ccccc1)NC(=O)[C@H](CCCNC(=N)N)NC(=O)[C@H](C)NC(=O)[C@H](N)Cc1ccc(O)cc1)[C@@H](C)O)[C@@H](C)O)C(=O)N[C@@H](CCCCN)C(=O)N[C@@H](C)C(=O)N[C@@H](C)C(=O)N[C@H](C)C(N)=O [Peptide 781.09] (H-[dY]ARFQRQTTLKAA[dA]-NH2),2.8,7.4,2,,7.4,37.7,
YARFQSQTTLKAET-NH2 [Peptide 717.26],35.7,20,18,4170,,,
CC(C)C[C@H](NC(=O)[C@@H](NC(=O)[C@@H](NC(=O)[C@H](CCC(N)=O)NC(=O)[C@H](CCCCN)NC(=O)[C@H](CC(=O)O)NC(=O)[C@H](Cc1ccccc1)NC(=O)[C@@H](CCCNC(=N)N)NC(=O)[C@H](C)NC(=O)[C@H](N)Cc1ccc(O)cc1)[C@@H](C)O)[C@@H](C)O)C(=O)N[C@@H](CCCCN)C(=O)N[C@@H](C)C(=O)N[C@@H](C)C(=O)N[C@H](C)C(=O)O [Peptide 781.19] (H-[dY]A[dR]FDKQTTLKAA[dA]-OH),60.2,96.6,8.1,,47.5,3330,
